Source: patent US3954769A, “Dibenzo[b,f]thiepins” (Hoffman-La Roche Inc., priority 1973, dated 1976)
Entries after “also recorded” stand apart in the source; their conditions may differ.

Assays:
rats = assay: Determination of cataleptic effect (undesired side effect); type: in vivo; settings: in words
Experimental: (§1) I. Determination of cataleptic effect (undesired side effect)
(§2) A cataleptic effect ("wax-like rigidity", that is, abnormally long retention of an enforced body position) is considered to be a disturbing side effect with central depressants and neuroleptically active compounds and indicates motor disturbances. […] The following compounds were tested:
(§3) The test animals are considered to be cataleptic when the homolateral extremities remain in the crossed position for at least 10 seconds. The number of cataleptic animals is recorded every 30 minutes over a 6-hour period. The ED50 is the dose at which 50% of the animals are cataleptic.

[1] = test system: homovanillinic acid (turnover of dopamine in the basal ganglions); assay: Determination of homovanillinic acid (HVA), turnover of dopamine in brain; type: in vivo, rats; settings: for Increase in HVA, %: rats, two hours prior to being killed, titer in untreated rats set at 100%; for activity in HVA test (in words): compared with chlorpromazine
Experimental: II. Determination of Homovanillinic Acid
Two hours prior to being killed, rats are injected with the test substance.
Thereafter, the homovanillinic acid is extracted from the supernatant portion of a homogenous mixture of the brains into butyl acetate and later into aqueous solution and is oxidized with potassium ferric cyanide to a fluorescent dimer. […] The homovanillinic acid titer in untreated rats is arbitrarily set at 100%.

mice = assay: Determination of toxicity in mice (24-hour-values); type: in vivo; settings: in words
Description: (§4) III. Determination of toxicity

[2] = Determination of toxicity in mice (24-hour-values); type: in vivo; settings: mouse, in vivo, po, read-out: ED50 (toxicity)
Description: as §4

[3] = Determination of cataleptic effect (undesired side effect); type: in vivo, rats; settings: rat, in vivo, ip; rats, intraperitoneally; recorded every 30 minutes over a 6-hour period; read-out: ED50 (dose at which 50% of the animals are cataleptic)
Experimental: as §1, §2, §3

CN(C)CCCN1c2ccccc2Sc2ccc(Cl)cc21 [Chlorpromazine, reference compound]
cataleptic effect (in words) (rats): does demonstrate cataleptic effects | Increase in HVA, % ([1]; 20 mg/kg. p.o.): 320%

COc1ccc2c(c1)CC(N1CCN(C)CC1)c1cc(SC)ccc1S2.O=C(O)/C=C\C(=O)O (centres unmarked) [Product A, 1-[10,11-dihydro-2-methoxy-8-(methylthio)-dibenzo[b,f]thiepin-10-yl]-4-methylpiperazine maleate]
toxicity (in words) (mice): superior to chlorpromazine | LD50 at 24 h [2]: 1880 mg/kg | cataleptic effect (in words) (rats; maleate): no cataleptic effect; also recorded: complete absence of cataleptic side effect | TD50 at 6 h [3]: > 100 mg/kg | activity in HVA test (in words) [1]: somewhat less active than chlorpromazine | Increase in HVA, % ([1]; 50 mg/kg. p.o.): 185%

CSc1ccc2c(c1)C(N1CCN(C)CC1)Cc1cc(C)ccc1S2.O=C(O)/C=C\C(=O)O (centres unmarked) [Product B, 1-[10,11-dihydro-2-methyl-8-(methylthio)-dibenzo[b,f]thiepin-10-yl]-4-methylpiperazine maleate]
toxicity (in words) (mice): superior to chlorpromazine | LD50 at 24 h [2]: 450 mg/kg | cataleptic effect (in words) (rats; maleate): considerably lower cataleptic effect than chlorpromazine; also recorded: superior to chlorpromazine due to the lower cataleptic side effect | TD50 at 6 h [3]: 25 mg/kg | activity in HVA test (in words) [1]: nearly as potent as that of chlorpromazine | Increase in HVA, % ([1]; 50 mg/kg. p.o.): 320%
